# Test system: 565726-208-R1-J5-PDC complex spheroids, growth inhibition
# Assay: Anticancer human tumor 565726-208-R1-J5-PDC patient-derived pancreatic adenocarcinoma cell line growth inhibition [RAS]
# Conditions: for IC50: curve of first compound; for viability, T/C: stronger effect = lower value
# Method in brief: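 Tumour cells grown as complex spheroids with HUVEC endothelial cells and mesenchymal stem cells, treated with RAS pathway inhibitor combinations. Each agent spans half-log steps from near clinical Cmax, or 10 microM where Cmax is unknown.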
# 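Further: spheroids exposed to compounds for seven days before readout.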
# 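Wherever viability, T/C is given: 100% = DMSO vehicle control viability.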
structure (smiles),measurement,setting,value
CCc1c2c(nc3ccc(O)cc13)-c1cc3c(c(=O)n1C2)COC(=O)[C@]3(O)CC + CCn1c(-c2cc(N3CCN(C)CC3)cnc2C(C)OC)c2c3cc(ccc31)-c1csc(n1)CC(NC(=O)C1CC1C)C(=O)N1CCCC(N1)C(=O)OCC(C)(C)C2,IC50,second compound 0.000949 µM,1.36 nM
same,IC50,second compound 0.003 µM,< 0.949 nM
same,IC50,second compound 0.00949 µM,< 0.949 nM
same,IC50,second compound 0.03 µM,< 0.949 nM
same,IC50,second compound 0.0949 µM,< 0.949 nM
same,IC50,second compound 0.3 µM,< 0.949 nM
same,"viability, T/C","second compound 0.000949 µM, first compound 0.000949 µM",58%
same,"viability, T/C","second compound 0.000949 µM, first compound 0.003 µM",32.1%
same,"viability, T/C","second compound 0.000949 µM, first compound 0.00949 µM",21.2%
same,"viability, T/C","second compound 0.000949 µM, first compound 0.03 µM",16.2%
same,"viability, T/C","second compound 0.000949 µM, first compound 0.0949 µM",9.45%
same,"viability, T/C","second compound 0.000949 µM, first compound 0.3 µM",5.7%
same,"viability, T/C","second compound 0.003 µM, first compound 0.000949 µM",47.9%
same,"viability, T/C","second compound 0.003 µM, first compound 0.003 µM",32.1%
same,"viability, T/C","second compound 0.003 µM, first compound 0.00949 µM",25.3%
same,"viability, T/C","second compound 0.003 µM, first compound 0.03 µM",17.7%
same,"viability, T/C","second compound 0.003 µM, first compound 0.0949 µM",12.1%
same,"viability, T/C","second compound 0.003 µM, first compound 0.3 µM",6.82%
same,"viability, T/C","second compound 0.00949 µM, first compound 0.000949 µM",36.1%
same,"viability, T/C","second compound 0.00949 µM, first compound 0.003 µM",30%
same,"viability, T/C","second compound 0.00949 µM, first compound 0.00949 µM",21.6%
same,"viability, T/C","second compound 0.00949 µM, first compound 0.03 µM",16%
same,"viability, T/C","second compound 0.00949 µM, first compound 0.0949 µM",12.1%
same,"viability, T/C","second compound 0.00949 µM, first compound 0.3 µM",6.89%
same,"viability, T/C","second compound 0.03 µM, first compound 0.000949 µM",27.9%
same,"viability, T/C","second compound 0.03 µM, first compound 0.003 µM",24.1%
same,"viability, T/C","second compound 0.03 µM, first compound 0.00949 µM",20.7%
same,"viability, T/C","second compound 0.03 µM, first compound 0.03 µM",15.9%
same,"viability, T/C","second compound 0.03 µM, first compound 0.0949 µM",11.9%
same,"viability, T/C","second compound 0.03 µM, first compound 0.3 µM",6.36%
same,"viability, T/C","second compound 0.0949 µM, first compound 0.000949 µM",22.6%
same,"viability, T/C","second compound 0.0949 µM, first compound 0.003 µM",23.4%
same,"viability, T/C","second compound 0.0949 µM, first compound 0.00949 µM",18.6%
same,"viability, T/C","second compound 0.0949 µM, first compound 0.03 µM",13.6%
same,"viability, T/C","second compound 0.0949 µM, first compound 0.0949 µM",10.4%
same,"viability, T/C","second compound 0.0949 µM, first compound 0.3 µM",6.38%
same,"viability, T/C","second compound 0.3 µM, first compound 0.000949 µM",21.4%
same,"viability, T/C","second compound 0.3 µM, first compound 0.003 µM",20.8%
same,"viability, T/C","second compound 0.3 µM, first compound 0.00949 µM",15.6%
same,"viability, T/C","second compound 0.3 µM, first compound 0.03 µM",14.6%
same,"viability, T/C","second compound 0.3 µM, first compound 0.0949 µM",10.7%
same,"viability, T/C","second compound 0.3 µM, first compound 0.3 µM",5.7%

# Source: PubChem BioAssay AID2060899 (Molecular Pharmacology Branch, DTP, NCI, 2025)
